Test system: 677734-321-R-J1-PDC complex spheroid viability
Assay: Anticancer human tumor 677734-321-R-J1-PDC patient-derived soft tissue sarcoma cell line growth inhibition [POLQ]
Conditions: for IC50: curve of first compound; for viability, T/C: stronger effect = lower value
In short: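 PDC + HUVEC + MSC complex spheroids; POLQ inhibitors ± partner drugs; top conc. at/near clinical Cmax, else 10 microM (SN-38 1 microM), half-log dilutions; 37 degrees C, 5% CO2.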

[1] = second compound 0.0316 µM, first compound 0.0316 µM
[2] = second compound 0.0316 µM, first compound 0.1 µM
[3] = second compound 0.0316 µM, first compound 0.316 µM
[4] = second compound 0.0316 µM, first compound 1 µM
[5] = second compound 0.0316 µM, first compound 3.16 µM
[6] = second compound 0.0316 µM, first compound 10 µM
[7] = second compound 0.1 µM, first compound 0.0316 µM
[8] = second compound 0.1 µM, first compound 0.1 µM
[9] = second compound 0.1 µM, first compound 0.316 µM
[10] = second compound 0.1 µM, first compound 1 µM
[11] = second compound 0.1 µM, first compound 3.16 µM
[12] = second compound 0.1 µM, first compound 10 µM
[13] = second compound 0.316 µM, first compound 0.0316 µM
[14] = second compound 0.316 µM, first compound 0.1 µM
[15] = second compound 0.316 µM, first compound 0.316 µM
[16] = second compound 0.316 µM, first compound 1 µM
[17] = second compound 0.316 µM, first compound 3.16 µM
[18] = second compound 0.316 µM, first compound 10 µM
[19] = second compound 1 µM, first compound 0.0316 µM
[20] = second compound 1 µM, first compound 0.1 µM
[21] = second compound 1 µM, first compound 0.316 µM
[22] = second compound 1 µM, first compound 1 µM
[23] = second compound 1 µM, first compound 3.16 µM
[24] = second compound 1 µM, first compound 10 µM
[25] = second compound 3.16 µM, first compound 0.0316 µM
[26] = second compound 3.16 µM, first compound 0.1 µM
[27] = second compound 3.16 µM, first compound 0.316 µM
[28] = second compound 3.16 µM, first compound 1 µM
[29] = second compound 3.16 µM, first compound 3.16 µM
[30] = second compound 3.16 µM, first compound 10 µM
[31] = second compound 10 µM, first compound 0.0316 µM
[32] = second compound 10 µM, first compound 0.1 µM
[33] = second compound 10 µM, first compound 0.316 µM
[34] = second compound 10 µM, first compound 1 µM
[35] = second compound 10 µM, first compound 3.16 µM
[36] = second compound 10 µM, first compound 10 µM
[37] = second compound 0.0316 µM, first compound 0.00316 µM
[38] = second compound 0.0316 µM, first compound 0.01 µM
[39] = second compound 0.1 µM, first compound 0.00316 µM
[40] = second compound 0.1 µM, first compound 0.01 µM
[41] = second compound 0.316 µM, first compound 0.00316 µM
[42] = second compound 0.316 µM, first compound 0.01 µM
[43] = second compound 1 µM, first compound 0.00316 µM
[44] = second compound 1 µM, first compound 0.01 µM
[45] = second compound 3.16 µM, first compound 0.00316 µM
[46] = second compound 3.16 µM, first compound 0.01 µM
[47] = second compound 10 µM, first compound 0.00316 µM
[48] = second compound 10 µM, first compound 0.01 µM
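Note: spheroids exposed to compounds for one week.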
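Throughout, for viability, T/C: 100% = vehicle DMSO treated spheroids.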

O=C(Nc1ccc(O)c(NS(=O)(=O)c2ccc(F)cc2)c1)c1ccc(-c2ccccc2)cc1 + Cc1cccc(N(C)C(=O)C2C(O)CCN2c2nc(C)cc(C(F)(F)F)c2C#N)c1
IC50 (second compound 0.0316 µM): 4140 nM | IC50 (second compound 0.1 µM): 5420 nM | IC50 (second compound 0.316 µM): 3710 nM | IC50 (second compound 1 µM): 3420 nM | IC50 (second compound 3.16 µM): 2080 nM | IC50 (second compound 10 µM): 1470 nM | viability, T/C [1]: 89.4% | viability, T/C [2]: 92.9% | viability, T/C [3]: 97.1% | viability, T/C [4]: 96.7% | viability, T/C [5]: 60.3% | viability, T/C [6]: 16% | viability, T/C [7]: 98.5% | viability, T/C [8]: 95.8% | viability, T/C [9]: 101% | viability, T/C [10]: 92.7% | viability, T/C [11]: 75.6% | viability, T/C [12]: 20.9% | viability, T/C [13]: 101% | viability, T/C [14]: 97.1% | viability, T/C [15]: 99.3% | viability, T/C [16]: 70.6% | viability, T/C [17]: 58% | viability, T/C [18]: 19.3% | viability, T/C [19]: 103% | viability, T/C [20]: 90.2% | viability, T/C [21]: 101% | viability, T/C [22]: 101% | viability, T/C [23]: 52.5% | viability, T/C [24]: 15.6% | viability, T/C [25]: 84.3% | viability, T/C [26]: 110% | viability, T/C [27]: 87.6% | viability, T/C [28]: 75.7% | viability, T/C [29]: 35.5% | viability, T/C [30]: 17.9% | viability, T/C [31]: 76.8% | viability, T/C [32]: 95.1% | viability, T/C [33]: 74.6% | viability, T/C [34]: 59.1% | viability, T/C [35]: 31.5% | viability, T/C [36]: 11.4%

Cn1ncnc1[C@H]1c2n[nH]c(=O)c3cc(F)cc(c23)N[C@@H]1c1ccc(F)cc1 + Nc1ccc(C#CCN(C(=O)Cc2ncc(C(F)(F)F)cc2C(F)(F)F)c2ccc(F)cc2)nn1
IC50 (second compound 0.0316 µM): > 100 nM | IC50 (second compound 0.1 µM): > 100 nM | IC50 (second compound 0.316 µM): > 100 nM | IC50 (second compound 1 µM): > 100 nM | IC50 (second compound 3.16 µM): > 100 nM | IC50 (second compound 10 µM): > 100 nM | viability, T/C (second compound 0.0316 µM, first compound 0.000316 µM): 79.4% | viability, T/C (second compound 0.0316 µM, first compound 0.001 µM): 105% | viability, T/C [37]: 86.2% | viability, T/C [38]: 93.1% | viability, T/C [1]: 99.6% | viability, T/C [2]: 79.8% | viability, T/C (second compound 0.1 µM, first compound 0.000316 µM): 92.4% | viability, T/C (second compound 0.1 µM, first compound 0.001 µM): 89.2% | viability, T/C [39]: 97.3% | viability, T/C [40]: 100% | viability, T/C [7]: 95% | viability, T/C [8]: 88.7% | viability, T/C (second compound 0.316 µM, first compound 0.000316 µM): 113% | viability, T/C (second compound 0.316 µM, first compound 0.001 µM): 111% | viability, T/C [41]: 109% | viability, T/C [42]: 97.4% | viability, T/C [13]: 75.2% | viability, T/C [14]: 72.8% | viability, T/C (second compound 1 µM, first compound 0.000316 µM): 112% | viability, T/C (second compound 1 µM, first compound 0.001 µM): 97.8% | viability, T/C [43]: 93.3% | viability, T/C [44]: 95.2% | viability, T/C [19]: 85.8% | viability, T/C [20]: 68.1% | viability, T/C (second compound 3.16 µM, first compound 0.000316 µM): 108% | viability, T/C (second compound 3.16 µM, first compound 0.001 µM): 95.2% | viability, T/C [45]: 100% | viability, T/C [46]: 98% | viability, T/C [25]: 99.7% | viability, T/C [26]: 93.7% | viability, T/C (second compound 10 µM, first compound 0.000316 µM): 115% | viability, T/C (second compound 10 µM, first compound 0.001 µM): 95.9% | viability, T/C [47]: 101% | viability, T/C [48]: 94.1% | viability, T/C [31]: 97.9% | viability, T/C [32]: 87.2%

C=CCn1c(=O)c2cnc(Nc3ccc(N4CCN(C)CC4)cc3)nc2n1-c1cccc(C(C)(C)O)n1 + COC1C(OC(N)=O)C(O)C(Oc2ccc3c(O)c(NC(=O)c4ccc(O)c(CC=C(C)C)c4)c(=O)oc3c2C)OC1(C)C
IC50 (second compound 0.0316 µM): > 1000 nM | IC50 (second compound 0.1 µM): > 1000 nM | IC50 (second compound 0.316 µM): > 1000 nM | IC50 (second compound 1 µM): > 1000 nM | IC50 (second compound 3.16 µM): > 1000 nM | IC50 (second compound 10 µM): > 1000 nM | viability, T/C [37]: 110% | viability, T/C [38]: 93.9% | viability, T/C [1]: 101% | viability, T/C [2]: 102% | viability, T/C [3]: 104% | viability, T/C [4]: 61.6% | viability, T/C [39]: 105% | viability, T/C [40]: 106% | viability, T/C [7]: 101% | viability, T/C [8]: 99.3% | viability, T/C [9]: 104% | viability, T/C [10]: 72.4% | viability, T/C [41]: 119% | viability, T/C [42]: 105% | viability, T/C [13]: 103% | viability, T/C [14]: 111% | viability, T/C [15]: 111% | viability, T/C [16]: 70.2% | viability, T/C [43]: 108% | viability, T/C [44]: 102% | viability, T/C [19]: 104% | viability, T/C [20]: 112% | viability, T/C [21]: 107% | viability, T/C [22]: 66.3% | viability, T/C [45]: 101% | viability, T/C [46]: 103% | viability, T/C [25]: 104% | viability, T/C [26]: 115% | viability, T/C [27]: 106% | viability, T/C [28]: 69.8% | viability, T/C [47]: 109% | viability, T/C [48]: 110% | viability, T/C [31]: 102% | viability, T/C [32]: 106% | viability, T/C [33]: 105% | viability, T/C [34]: 76%

CC(C)n1c(=O)n(C)c2cnc3cc(F)c(-c4ccc(OCCCN5CCCCC5)nc4)cc3c21 + Cc1cccc(N(C)C(=O)C2C(O)CCN2c2nc(C)cc(C(F)(F)F)c2C#N)c1
IC50 (second compound 0.0316 µM): > 10000 nM | IC50 (second compound 0.1 µM): > 10000 nM | IC50 (second compound 0.316 µM): > 10000 nM | IC50 (second compound 1 µM): > 10000 nM | IC50 (second compound 3.16 µM): > 10000 nM | IC50 (second compound 10 µM): > 10000 nM | viability, T/C [1]: 104% | viability, T/C [2]: 98.6% | viability, T/C [3]: 104% | viability, T/C [4]: 98.2% | viability, T/C [5]: 99% | viability, T/C [6]: 92.4% | viability, T/C [7]: 104% | viability, T/C [8]: 101% | viability, T/C [9]: 99.4% | viability, T/C [10]: 100% | viability, T/C [11]: 98.7% | viability, T/C [12]: 88.6% | viability, T/C [13]: 101% | viability, T/C [14]: 91.6% | viability, T/C [15]: 102% | viability, T/C [16]: 109% | viability, T/C [17]: 106% | viability, T/C [18]: 99.8% | viability, T/C [19]: 110% | viability, T/C [20]: 93.5% | viability, T/C [21]: 99% | viability, T/C [22]: 108% | viability, T/C [23]: 104% | viability, T/C [24]: 88.1% | viability, T/C [25]: 98.7% | viability, T/C [26]: 102% | viability, T/C [27]: 109% | viability, T/C [28]: 106% | viability, T/C [29]: 99.3% | viability, T/C [30]: 92.4% | viability, T/C [31]: 101% | viability, T/C [32]: 98.8% | viability, T/C [33]: 97.5% | viability, T/C [34]: 95.8% | viability, T/C [35]: 97.4% | viability, T/C [36]: 92.5%
